Measured values taken from US10222368B2 (priority 2012, dated 2019).

How the values were obtained:
[1] = system: cytokines IL-6, TNFα and IL-1β; test: ICV Aβ42 infusion mouse model, cytokine fluorescence ELISA; assay type: in vivo; settings: ICV Aβ42-infused mice; 10 mg/kg C0105 i.p.
Description: FIG. 6 illustrates that Compound C0105 treatment of mice nearly abolishes Aβ42-induced cytokine production. […] Compound C0105 almost abolished the production of these 3 cytokines. n=7 or n=8.

Aβ42-α7nAChR complex = test: Lymphocyte co-immunoprecipitation / Western blot; assay type: cell-based, human
Procedure: To prepare lymphocytes, 7 ml of venous blood was collected into an EDTA-containing collecting tube or S-monovette (Sarstedt, Newton, N.C.). […] The lymphocytes were washed twice by mixing with 6 ml oxygenated Kreb's-Ringer followed by centrifugation at 250×g for 10 minutes and re-suspension. […] To store lymphocytes, the lymphocyte pellet was resuspended in 250 μl ice-cold oxygenated Kreb's-Ringer containing 10% glycerol, and stored at −20° C. for 1 hour before storage at −80° C.
The incubation was terminated by adding 1 ml ice-cold Ca^2+-free Kreb's-Ringer containing 0.5 mM EGTA/0.1 mM EDTA, protease and phosphatase inhibitors followed by centrifugation. […]
The membranes were then washed 3 times (1 minutes each) with 0.1% Tween-20 containing PBS and then once with distilled water for 1 minutes. The immunoreactivity was detected by a chemiluminutesescent method (Supersignal chemiluminutesescent reagents−Pierce/Thermo), and visualized by immediate exposure to X-ray film for 10-30 seconds (depending on the intensity of the signal). Specific protein bands were quantified by densitometric scanning (GS-800 calibrated densitometer, Bio-Rad Laboratories). […]

TLR4-FLNA complex = target: T1, TLR4-FLNA complex (Homo sapiens, UniProt P21333); test: Lymphocyte co-immunoprecipitation / Western blot; assay type: cell-based
T1 construct: To determine the levels of FLNA-α7nAChR, FLNA-TLR4 and α7nAChR-Aβ42 complexes in the lymphocytes; endogenous in cells; host or cells: lymphocytes from venous blood of AD patients and control subjects (ex vivo)
Procedure: To prepare lymphocytes, 7 ml of venous blood was collected into an EDTA-containing collecting tube or S-monovette (Sarstedt, Newton, N.C.). Collected blood (6 ml) was layered onto 6 ml HISTOPAQUE-1077 (Sigma, St Louis, Mo.) at 25° C. and the entire anti-coagulated blood was centrifuged at 400×g for 30 minutes (25° C.) to yield plasma (top layer) and lymphocytes (opaque interface). The lymphocytes were washed twice by mixing with 6 ml oxygenated Kreb's-Ringer followed by centrifugation at 250×g for 10 minutes and re-suspension. The final pellet was resuspended in 250 μl oxygenated Kreb's-Ringer prior to protein content determination by the Bradford method and assessment of the levels of FLNA-α7nAChR, FLNA-TLR4 and α7nAChR-Aβ42 complexes. To store lymphocytes, the lymphocyte pellet was resuspended in 250 μl ice-cold oxygenated Kreb's-Ringer containing 10% glycerol, and stored at −20° C. for 1 hour before storage at −80° C.
To determine the levels of FLNA-α7nAChR, FLNA-TLR4 and α7nAChR-Aβ42 complexes in the lymphocytes, lymphocytes (50 μg) from control subjects were incubated for 30 minutes at 37° C. in 0.25 ml Kreb's-Ringer without or with 100 nM Aβ 42, and lymphocytes (50 μg) from AD subjects were incubated for 30 minutes at 37° C. in 0.25 ml Kreb's-Ringer. Lymphocytes from control and AD subjects were also simultaneously incubated with or without Compound C0105 (1 nM). […] In the case that frozen lymphocyte samples were used, a lymphocyte suspension was gradually thawed by storing at −20° C. for 1 hour after removal from −80° C. and then at thawed at 4° C.
The incubation was terminated by adding 1 ml ice-cold Ca^2+-free Kreb's-Ringer containing 0.5 mM EGTA/0.1 mM EDTA, protease and phosphatase inhibitors followed by centrifugation. The resultant lymphocyte pellet was homogenized in 0.25 ml ice-cold immunoprecipitation buffer. […]
The results are shown in FIG. 1A and quantified in FIG. 1C. […]

[2] = target: FLNA association with α7nAChR (Mus musculus, UniProt Q8BTM8); test: ICV Aβ42 infusion mouse model, synaptosome co-immunoprecipitation; settings: 10 mg/kg C0105 i.p. twice daily, 2 weeks; prefrontal cortex and hippocampus
[3] = target: FLNA association with TLR4 (Homo sapiens, UniProt P21333); test: Postmortem human brain tissue slices, anti-FLNA immunoprecipitation / Western blot; assay type: cell-based; settings: 0.1 and 1 nM C0105, 1 hour; postmortem AD and Aβ42-treated control FCX tissue
Procedure: (§1) Blots were analyzed by densitometric quantitation (FIG. 3B and FIG. 3D). […] Percent inhibition is depicted in FIG. 3C and FIG. 3E. n=11.
(§2) Postmortem brain tissues FCX from patients with clinically diagnosed sporadic AD and control tissues from normal, age-matched, neurologically normal individuals were obtained from the Harvard Brain Tissue Resource Center (HBTRC, Belmont, Mass.) and UCLA Brain Tissue Resource Center (UBTRC, Los Angeles, Calif.). Both HBTRC and UBTRC are supported in part by the National Institute of Health. The postmortem time intervals for collecting these brains were ≤13 hour (mean postmortem intervals for collection of AD and control brain samples were 6.0±0.9 hour and 5.8±0.8 hour, respectively). Diagnostic neuropathological examination was conducted on fixed sections stained with hematoxylin and eosin stain and with modified Bielschowsky silver staining [Yamamoto et al., Neuropathol Appl Neurobiol 12, 3-9 (1986)] to establish any disease diagnosis according to defined criteria [Hyman et al., J Neuropathol Exp Neurol 56, 1095-1097 (1997)] and brain tissue from age-matched controls was similarly screened.
(§3) Following centrifugation and two additional washes with 1 ml ice-cold K-R, brain slices were suspended in 1 ml K-R.
(§4) Incubation continued for 1 hour in the dark. […]

[4] = target: FLNA association with α7nAChR (Homo sapiens, UniProt P21333); test: as above; assay type: cell-based; settings: 0.1 and 1 nM C0105, 1 hour; postmortem AD and Aβ42-treated control FCX tissue
Procedure: as §1, §2, §3, §4

α7nAChR-FLNA association = target: T2, α7nAChR-FLNA association (Rattus norvegicus, UniProt A0A8I5ZV49); test: Rat frontal cortical synaptosomes treated with Aβ42, anti-FLNA immunoprecipitation / Western blot; assay type: cell-based; settings: 1 or 10 nM compound, simultaneously or 10 min prior to 0.1 μM Aβ42
T2 construct: from tissue; host or cells: rat frontal cortical synaptosomes
Description: The α7nAChR-FLNA complexes in the solubilized synaptosomes were immunoprecipitated with immobilized anti-FLNA and the α7nAChR and FLNA levels in the anti-FLNA immunoprecipitates determined by Western blotting (FIG. 14A) and quantified by densitometry for illustrative compounds (FIG. 14B). n=3. […] The letter designation “M” that accompanies many of the “C-series” compounds is omitted from FIG. 14, the remaining figures and most discussions of the figures and compounds hereinafter for ease in expression. Structural formulas of the compounds used in this and the other figures are provided hereinafter.
The complexes in the solubilized synaptosomes, and α7nAChR, TLR4 and FLNA levels in the anti-FLNA immunoprecipitates were determined by Western blotting (FIG. 15A) in which numerals outside of and to the left of the blots are as discussed before. Amounts present in the blots were quantified by densitometry (FIG. 15B). […] Structural formulas of the compounds used in this and the other figures are provided hereinafter.

[5] = 1 nM C0105, lymphocytes of 10 YCI controls

T1 sequence (P21333 2-2647 limits assumed, one chain of several): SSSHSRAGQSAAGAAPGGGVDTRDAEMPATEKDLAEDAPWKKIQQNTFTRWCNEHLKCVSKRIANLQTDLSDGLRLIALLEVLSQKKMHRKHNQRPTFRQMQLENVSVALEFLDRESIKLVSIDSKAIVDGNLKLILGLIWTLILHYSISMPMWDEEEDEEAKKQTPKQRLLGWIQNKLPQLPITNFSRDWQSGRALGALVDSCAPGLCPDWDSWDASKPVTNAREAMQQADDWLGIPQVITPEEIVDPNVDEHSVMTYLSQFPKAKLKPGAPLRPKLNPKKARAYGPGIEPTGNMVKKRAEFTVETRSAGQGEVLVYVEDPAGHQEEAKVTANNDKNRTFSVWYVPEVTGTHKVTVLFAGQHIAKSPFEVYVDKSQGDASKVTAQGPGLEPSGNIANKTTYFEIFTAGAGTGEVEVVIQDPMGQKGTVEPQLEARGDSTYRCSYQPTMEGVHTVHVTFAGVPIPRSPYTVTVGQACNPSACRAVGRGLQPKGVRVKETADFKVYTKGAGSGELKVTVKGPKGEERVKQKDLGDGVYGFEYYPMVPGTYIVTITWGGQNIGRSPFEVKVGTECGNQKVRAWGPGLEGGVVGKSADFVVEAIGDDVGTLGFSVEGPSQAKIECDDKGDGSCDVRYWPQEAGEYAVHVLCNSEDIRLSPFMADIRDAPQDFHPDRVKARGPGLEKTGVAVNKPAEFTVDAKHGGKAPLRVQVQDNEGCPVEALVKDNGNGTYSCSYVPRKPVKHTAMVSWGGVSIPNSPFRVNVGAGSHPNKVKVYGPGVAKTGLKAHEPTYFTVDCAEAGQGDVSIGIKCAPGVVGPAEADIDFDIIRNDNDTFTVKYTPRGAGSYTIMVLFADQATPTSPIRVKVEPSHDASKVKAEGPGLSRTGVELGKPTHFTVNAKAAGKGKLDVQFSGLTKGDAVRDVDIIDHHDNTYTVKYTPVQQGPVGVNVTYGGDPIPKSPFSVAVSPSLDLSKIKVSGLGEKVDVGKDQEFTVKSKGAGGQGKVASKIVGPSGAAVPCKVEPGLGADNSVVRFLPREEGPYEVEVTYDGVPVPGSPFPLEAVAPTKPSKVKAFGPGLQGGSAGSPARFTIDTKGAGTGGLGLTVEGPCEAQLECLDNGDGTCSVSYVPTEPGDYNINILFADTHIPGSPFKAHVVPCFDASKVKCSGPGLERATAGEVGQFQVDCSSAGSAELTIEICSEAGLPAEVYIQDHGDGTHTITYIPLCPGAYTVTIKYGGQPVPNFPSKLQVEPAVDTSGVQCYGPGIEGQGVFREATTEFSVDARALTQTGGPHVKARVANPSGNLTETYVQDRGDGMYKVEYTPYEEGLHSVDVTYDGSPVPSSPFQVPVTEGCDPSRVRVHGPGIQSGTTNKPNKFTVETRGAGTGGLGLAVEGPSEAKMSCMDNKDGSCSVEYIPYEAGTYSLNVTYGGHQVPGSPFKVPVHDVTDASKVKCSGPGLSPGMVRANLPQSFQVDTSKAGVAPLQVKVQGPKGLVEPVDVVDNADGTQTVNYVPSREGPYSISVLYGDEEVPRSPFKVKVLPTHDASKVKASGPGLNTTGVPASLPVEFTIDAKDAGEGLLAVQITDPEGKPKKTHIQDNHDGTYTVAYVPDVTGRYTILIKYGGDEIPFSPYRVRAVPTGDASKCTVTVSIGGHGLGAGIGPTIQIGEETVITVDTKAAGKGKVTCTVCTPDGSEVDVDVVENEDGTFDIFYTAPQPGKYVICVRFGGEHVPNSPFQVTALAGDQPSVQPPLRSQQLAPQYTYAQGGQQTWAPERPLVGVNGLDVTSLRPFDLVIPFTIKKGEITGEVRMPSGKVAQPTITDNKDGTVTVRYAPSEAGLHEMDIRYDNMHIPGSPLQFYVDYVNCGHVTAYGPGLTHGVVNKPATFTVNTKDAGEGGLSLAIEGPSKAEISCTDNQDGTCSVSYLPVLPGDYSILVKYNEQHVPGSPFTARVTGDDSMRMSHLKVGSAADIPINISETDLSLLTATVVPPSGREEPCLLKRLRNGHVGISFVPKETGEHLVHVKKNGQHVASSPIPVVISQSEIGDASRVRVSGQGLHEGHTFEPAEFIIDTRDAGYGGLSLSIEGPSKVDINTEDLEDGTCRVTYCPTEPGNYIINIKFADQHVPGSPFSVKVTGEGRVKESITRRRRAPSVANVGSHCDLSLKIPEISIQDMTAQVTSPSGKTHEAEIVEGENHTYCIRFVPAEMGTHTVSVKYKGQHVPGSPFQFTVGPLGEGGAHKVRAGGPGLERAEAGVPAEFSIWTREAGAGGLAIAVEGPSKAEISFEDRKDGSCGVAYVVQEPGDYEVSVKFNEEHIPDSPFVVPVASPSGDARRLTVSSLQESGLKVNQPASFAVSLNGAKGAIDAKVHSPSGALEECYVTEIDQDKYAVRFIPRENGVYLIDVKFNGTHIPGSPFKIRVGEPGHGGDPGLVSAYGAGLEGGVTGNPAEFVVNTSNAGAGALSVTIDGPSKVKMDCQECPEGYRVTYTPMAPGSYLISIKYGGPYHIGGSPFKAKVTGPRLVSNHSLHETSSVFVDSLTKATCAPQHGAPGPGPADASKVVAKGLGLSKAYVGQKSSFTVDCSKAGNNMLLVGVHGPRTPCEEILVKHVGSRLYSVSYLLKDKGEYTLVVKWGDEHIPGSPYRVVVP
Sequence of FLNA association with α7nAChR (Homo sapiens, UniProt P21333) (P21333 2-2647 limits assumed): as the sequence (P21333 2-2647 limits assumed, one chain of several) above
Sequence of FLNA association with TLR4 (P21333 2-2647 limits assumed): as the sequence (P21333 2-2647 limits assumed, one chain of several) above

## CN1CCC2(CC1)NCC(=O)N2Cc1ccccc1 [Compound C0105]
[1]
  Effect on Aβ42-induced IL-6 production (in words): completely abolished
  Suppression of IL-1β level: 80%
  Suppression of TNF-α level: 86%
Aβ42-α7nAChR complex; 1 nM C0105, 30 min, lymphocytes of 20 AD subjects
  Reduction of α7nAChR/Aβ42 complex level (% inhibition): approximately 50%
Aβ42-α7nAChR complex; [5]
  Effect on α7nAChR/Aβ42 complex level (in words): no discernible effect
TLR4-FLNA complex; 1 nM C0105, 30 min, lymphocytes of 20 AD subjects, read-out: Reduction of TLR4/FLNA complex level (% inhibition)
  inhibition at 0.001 µM: ~50%
TLR4-FLNA complex; 1 nM C0105, Aβ42-treated control and untreated AD lymphocytes
  Effect on amount of TLR4-FLNA complexes (in words), pilot study: decreases the amount of TLR4-FLNA complexes
TLR4-FLNA complex; [5]
  Effect on TLR4/FLNA complex level (in words): no discernible effect
[2]
  Effect on Aβ42-induced FLNA association with α7nAChR (in words): reduced Aβ42-induced increases in FLNA associations
[3]
  Effect on FLNA association with TLR4 (in words): reduced these associations
[4]
  Effect on FLNA association with α7nAChR (in words): reduced these associations
α7nAChR-FLNA association
  Effect on Aβ42-induced α7nAChR-FLNA association (in words): reduce α7nAChR-FLNA association
